Data taken from US7932270B2 (Cytokinetics, Inc., priority 2006, dated 2011).

Molecular target: T1, chicken gizzard smooth muscle myosin subfragment-1 chemically crosslinked to cardiac or skeletal actin (Gallus gallus, UniProt P10587)
T1 construct: chicken gizzard smooth muscle myosin subfragment-1; from tissue; host or cells: chicken gizzard
Assay: Smooth muscle myosin ATPase dose response assay (pyruvate kinase/horseradish peroxidase/pyruvate oxidase-coupled, amplex red fluorescence)
Format: biochemical
Settings: read-out: IC50 Arithmetic Mean
Method in brief: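 Readout is amplex red signal from coupled ATPase of actin-crosslinked gizzard myosin S1 (0.15 mM ATP, 12 mM K-PIPES, pH 7.00). IC50 is the half-maximal activity point of a four-parameter Hill fit.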

T1 sequence (P02607 2-151): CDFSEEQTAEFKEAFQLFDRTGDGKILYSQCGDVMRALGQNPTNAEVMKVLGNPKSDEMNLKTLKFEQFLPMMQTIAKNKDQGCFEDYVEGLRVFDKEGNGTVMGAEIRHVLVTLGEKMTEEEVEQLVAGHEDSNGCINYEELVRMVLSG
T1 sequence (P10587 84-789): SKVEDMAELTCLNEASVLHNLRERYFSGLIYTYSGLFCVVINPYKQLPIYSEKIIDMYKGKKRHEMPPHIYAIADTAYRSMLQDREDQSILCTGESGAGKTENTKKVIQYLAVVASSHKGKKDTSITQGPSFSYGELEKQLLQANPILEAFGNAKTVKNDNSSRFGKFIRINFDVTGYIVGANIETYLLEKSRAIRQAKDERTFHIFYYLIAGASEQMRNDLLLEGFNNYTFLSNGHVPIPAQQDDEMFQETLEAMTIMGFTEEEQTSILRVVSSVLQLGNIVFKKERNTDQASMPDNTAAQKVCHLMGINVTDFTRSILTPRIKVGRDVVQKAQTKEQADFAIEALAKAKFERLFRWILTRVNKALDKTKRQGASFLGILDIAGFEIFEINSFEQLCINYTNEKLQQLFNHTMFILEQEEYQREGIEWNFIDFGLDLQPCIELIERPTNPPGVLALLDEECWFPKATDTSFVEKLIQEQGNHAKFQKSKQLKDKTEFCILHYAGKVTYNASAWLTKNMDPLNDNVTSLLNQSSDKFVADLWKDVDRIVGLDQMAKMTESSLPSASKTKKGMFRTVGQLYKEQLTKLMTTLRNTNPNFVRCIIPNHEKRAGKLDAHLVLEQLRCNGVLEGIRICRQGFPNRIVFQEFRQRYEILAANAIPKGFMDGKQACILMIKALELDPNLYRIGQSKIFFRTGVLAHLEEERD

| Structure (SMILES) | IC50 [nM] |
| --- | --- |
| N#Cc1ccccc1-c1ccc(C(=O)NCCN2CCC[C@H](NC(=O)OCc3ccccc3)C2=O)c(NCCc2cccc(F)c2)n1 [(6-(2-cyanophenyl)-2-{[2-(3-fluorophenyl)ethyl]amino}(3-pyridyl))-N-(2-{2-oxo-3-[(phenylmethoxy)carbonylamino]piperidyl}ethyl)carboxamide] | 11800 |
| CC(C)(C)OC(=O)NCCCC(=O)N1CCC[C@H](CNC(=O)c2ccc(-c3ccccc3C#N)nc2NCCc2cccc(F)c2)C1 [N-[((3R)-1-{4-[(tert-butoxy)carbonylamino]butanoyl}(3-piperidyl))methyl](6-(2-cyanophenyl)-2-{[2-(3-fluorophenyl)ethyl]amino}(3-pyridyl))carboxamide] | 6160 |
| Cn1cc(-c2ccc(C(=O)NCC3CCN(CCCNC(=O)OC(C)(C)C)C3=O)c(NCCc3cccc(F)c3)n2)cn1 (stereo not drawn) [N-[(1-{3-[(tert-butoxy)carbonylamino]propyl}-2-oxopyrrolidin-3-yl)methyl](2-{[2-(3-fluorophenyl)ethyl]amino}-6-(1-methylpyrazol-4-yl)(3-pyridyl))carboxamide] | 699 |
| N#Cc1ccccc1-c1ccc(C(=O)NCC2CCN(C(=O)CN)CC2)c(NCCc2cccc(F)c2)n1 [N-{[1-(2-aminoacetyl)(4-piperidyl)]methyl}(6-(2-cyanophenyl)-2-{[2-(3-fluorophenyl)ethyl]amino}(3-pyridyl))carboxamide] | 572 |
| O=C(NCc1cccnc1)c1ccc(-c2ccccc2)nc1NCCc1ccc(Cl)cc1 [(2-{[2-(4-chlorophenyl)ethyl]amino}-6-phenyl(3-pyridyl))-N-(3-pyridylmethyl)carboxamide] | 6680 |
| C[C@H](CNC(=O)c1ccc(-c2ccccc2C#N)nc1NCCc1cccc(F)c1)N(C)S(C)(=O)=O [N-{(2R)-2-[methyl(methylsulfonyl)amino]propyl}(6-(2-cyanophenyl)-2-{[2-(3-fluorophenyl)ethyl]amino}(3-pyridyl))carboxamide] | 7070 |
| N#Cc1ccccc1-c1ccc(C(=O)NCCNC(=O)CCN)c(NCCc2cccc(F)c2)n1 [3-amino-N-{2-[(6-(2-cyanophenyl)-2-{[2-(3-fluorophenyl)ethyl]amino}(3-pyridyl))carbonylamino]ethyl}propanamide] | 4320 |
| O=C(NCc1cccnc1Cl)c1ccc(-c2cn[nH]c2)nc1NCCc1cccc(F)c1 | 46 |
| O=C(NCc1cccnc1)c1ccc(-c2ccccc2)nc1NCCc1c(F)cccc1F [(2-{[2-(2,6-difluorophenyl)ethyl]amino}-6-phenyl(3-pyridyl))-N-(3-pyridylmethyl)carboxamide] | 288 |
| CC(=O)N1CC[C@H](CNC(=O)c2ccc(-c3ccccc3)nc2NCCc2ccccn2)C1 [N-[((3R)-1-acetylpyrrolidin-3-yl)methyl]{6-phenyl-2-[(2-(2-pyridyl)ethyl)amino](3-pyridyl)}carboxamide] | 26900 |
| Cc1csc(-c2ccc(C(=O)NCc3cccnc3)c(NCCc3cccc(F)c3)n2)c1 [(2-{[2-(3-fluorophenyl)ethyl]amino}-6-(4-methyl(2-thienyl))(3-pyridyl))-N-(3-pyridylmethyl)carboxamide] | 148 |
| CN(C)c1ccc(CNC(=O)c2ccc(-c3ccccc3C#N)nc2NCCc2cccc(F)c2)cn1 [N-{[6-(dimethylamino)(3-pyridyl)]methyl}(6-(2-cyanophenyl)-2-{[2-(3-fluorophenyl)ethyl]amino}(3-pyridyl))carboxamide] | 30200 |
| CC(O)c1ccc(-c2ccc(C(=O)NCc3cccnc3)c(NCCc3cccc(F)c3)n2)s1 (stereo not drawn) [(2-{[2-(3-fluorophenyl)ethyl]amino}-6-[5-(hydroxyethyl)(2-thienyl)](3-pyridyl))-N-(3-pyridylmethyl)carboxamide] | 415 |
| O=C(NCc1cccnc1)c1ccc(-c2ccccc2)nc1NCCc1ccc(F)cc1 [(2-{[2-(4-fluorophenyl)ethyl]amino}-6-phenyl(3-pyridyl))-N-(3-pyridylmethyl)carboxamide] | 1610 |
| N#Cc1ccccc1-c1ccc(C(=O)N[C@@H](CCCCN)C(N)=O)c(NCCc2cccc(F)c2)n1 [N-((1S)-5-amino-1-carbamoylpentyl)(6-(2-cyanophenyl)-2-{[2-(3-fluorophenyl)ethyl]amino}(3-pyridyl))carboxamide] | 4420 |
| O=C(NC[C@H]1CCNC1)c1ccc(-c2ccccc2)nc1NCCc1ccccn1 [N-[((3S)pyrrolidin-3-yl)methyl]{6-phenyl-2-[(2-(2-pyridyl)ethyl)amino](3-pyridyl)}carboxamide] | 62600 |
| Cn1cc(-c2nc(NCCc3cccc(F)c3)c(C(=O)NCC(C)(C)O)cc2F)cn1 [(5-fluoro-2-{[2-(3-fluorophenyl)ethyl]amino}-6-(1-methylpyrazol-4-yl)(3-pyridyl))-N-(2-hydroxy-2-methylpropyl)carboxamide] | 381 |
| N#Cc1ccccc1-c1ccc(C(=O)NCC(=O)NCCCO)c(NCCc2cccc(F)c2)n1 [2-[(6-(2-cyanophenyl)-2-{[2-(3-fluorophenyl)ethyl]amino}(3-pyridyl))carbonylamino]-N-(3-hydroxypropyl)acetamide] | 5840 |

| Structure (SMILES) | IC50 [nM] |
| --- | --- |
| N#Cc1ccccc1-c1ccc(C(=O)NC[C@H]2CNCCN2C(=O)CN)c(NCCc2cccc(F)c2)n1 [N-{[(2R)-1-(2-aminoacetyl)piperazin-2-yl]methyl}(6-(2-cyanophenyl)-2-{[2-(3-fluorophenyl)ethyl]amino}(3-pyridyl))carboxamide] | 2780 |
| N#Cc1ccccc1-c1ccc(C(=O)N[C@@H]2CCCNC2=O)c(NCCc2cccc(F)c2)n1 [N-((3R)-2-oxo(3-piperidyl))(6-(2-cyanophenyl)-2-{[2-(3-fluorophenyl)ethyl]amino}(3-pyridyl))carboxamide] | 352 |
| CC(C)(C)OC(=O)NCCCNC(=O)CNC(=O)c1ccc(-c2ccccc2C#N)nc1NCCc1cccc(F)c1 [N-{3-[(tert-butoxy)carbonylamino]propyl}-2-[(6-(2-cyanophenyl)-2-{[2-(3-fluorophenyl)ethyl]amino}(3-pyridyl))carbonylamino]acetamide] | 9880 |
| N#Cc1ccccc1-c1ccc(C(=O)NC[C@@H]2CCCCN2C(=O)CN)c(NCCc2cccc(F)c2)n1 [N-{[(2S)-1-(2-aminoacetyl)(2-piperidyl)]methyl}(6-(2-cyanophenyl)-2-{[2-(3-fluorophenyl)ethyl]amino}(3-pyridyl))carboxamide] | 74 |
| N#Cc1ccccc1-c1nc(NCCc2cccc(F)c2)c(C(=O)NCc2cccnc2)cc1Br [(5-bromo-6-(2-cyanophenyl)-2-{[2-(3-fluorophenyl)ethyl]amino}(3-pyridyl))-N-(3-pyridylmethyl)carboxamide] | 2650 |
| Cn1cc(-c2nc(NCCc3cccc(F)c3)c(C(=O)NCc3cc[nH]n3)cc2F)cn1 [(5-fluoro-2-{[2-(3-fluorophenyl)ethyl]amino}-6-(1-methylpyrazol-4-yl)(3-pyridyl))-N-(pyrazol-3-ylmethyl)carboxamide] | 20 |
| CN(C)CCCNC(=O)CNC(=O)c1ccc(-c2ccccc2C#N)nc1NCCc1cccc(F)c1 [N-[3-(dimethylamino)propyl]-2-[(6-(2-cyanophenyl)-2-{[2-(3-fluorophenyl)ethyl]amino}(3-pyridyl))carbonylamino]acetamide] | 12200 |
| CN[C@@H](C)CNC(=O)c1ccc(-c2ccccc2C#N)nc1NCCc1cccc(F)c1 [N-[(2S)-2-(methylamino)propyl](6-(2-cyanophenyl)-2-{[2-(3-fluorophenyl)ethyl]amino}(3-pyridyl))carboxamide] | 944 |
| N#Cc1ccccc1CCNc1nc(-c2ccccc2)ccc1C(=O)NCc1cccnc1 | 260 |
| N#Cc1ccccc1-c1ccc(C(=O)NC[C@@H](CN)NC(=O)CO)c(NCCc2cccc(F)c2)n1 [N-((1R)-2-amino-1-{[(6-(2-cyanophenyl)-2-{[2-(3-fluorophenyl)ethyl]amino}(3-pyridyl))carbonylamino]methyl}ethyl)-2-hydroxyacetamide] | 10600 |
| C[C@H](CNC(=O)c1cc(F)c(-c2cnn(C)c2)nc1NCCc1cccc(F)c1)NC(=O)C(C)(C)N | 285 |
| N#Cc1ccccc1-c1ccc(C(=O)NCc2cccnc2N)c(NCCc2cccc(F)c2)n1 [N-[(2-amino(3-pyridyl))methyl](6-(2-cyanophenyl)-2-{[2-(3-fluorophenyl)ethyl]amino}(3-pyridyl))carboxamide] | 22 |
| Cn1cc(-c2ccc(C(=O)NC[C@H]3CCCN3C(=O)CCNC(=O)OC(C)(C)C)c(NCCc3cccc(F)c3)n2)cn1 [N-[((2R)-1-{3-[(tert-butoxy)carbonylamino]propanoyl}pyrrolidin-2-yl)methyl](2-{[2-(3-fluorophenyl)ethyl]amino}-6-(1-methylpyrazol-4-yl)(3-pyridyl))carboxamide] | 5030 |
| N#Cc1ccccc1-c1ccc(C(=O)N[C@H](CCCCN)C(N)=O)c(NCCc2cccc(F)c2)n1 [N-((1R)-5-amino-1-carbamoylpentyl)(6-(2-cyanophenyl)-2-{[2-(3-fluorophenyl)ethyl]amino}(3-pyridyl))carboxamide] | 1280 |
| N#Cc1ccccc1-c1ccc(C(=O)NC[C@H]2CN(C(=O)CCN)CCN2)c(NCCc2cccc(F)c2)n1 [N-{[(2S)-4-(3-aminopropanoyl)piperazin-2-yl]methyl}(6-(2-cyanophenyl)-2-{[2-(3-fluorophenyl)ethyl]amino}(3-pyridyl))carboxamide] | 11200 |
| N#Cc1ccccc1-c1ccc(C(=O)NC[C@H]2CCN2C(=O)[C@H](N)CO)c(NCCc2cccc(F)c2)n1 [N-{[(2R)-1-((2R)-2-amino-3-hydroxypropanoyl)azetidin-2-yl]methyl}(6-(2-cyanophenyl)-2-{[2-(3-fluorophenyl)ethyl]amino}(3-pyridyl))carboxamide] | 83 |
| O=C(NCc1cccnc1)c1ccc(-c2ccc(C(F)(F)F)cc2)nc1NCCc1ccccn1 [{2-[(2-(2-pyridyl)ethyl)amino]-6-[4-(trifluoromethyl)phenyl](3-pyridyl)}-N-(3-pyridylmethyl)carboxamide] | 2290 |
| N#Cc1[nH]ncc1-c1ccc(C(=O)NCc2cccnc2)c(NCCc2cccc(F)c2)n1 [(6-(5-cyanopyrazol-4-yl)-2-{[2-(3-fluorophenyl)ethyl]amino}(3-pyridyl))-N-(3-pyridylmethyl)carboxamide] | 105 |
